Experiment: physchem
Format: physicochemical
Protocol: ^a) Note regarding the determination of the log P values and mass detection: The log P values given were determined in accordance with EEC Directive 79/831 Annex V.A8 by HPLC (High Performance Liquid Chromatography) on a phase inversion column (C18). Agilent 1100 LC system; 50*4.6 Zorbax Eclipse Plus C18 1.8 micron; eluent A: acetonitrile (0.1% formic acid); eluent B: water (0.09% formic acid); linear gradient from 10% acetonitrile to 95% acetonitrile in 4.25 min, then 95% acetonitrile for a further 1.25 min; oven temperature 55° C.; flow: 2.0 ml/min. The mass detection is carried out via an Agilend MSD system.

[1] = HPLC phase inversion (reversed-phase) C18 column, HPLC method a), eluent acetonitrile/water with formic acid, read-out: logP
[2] = HPLC phase inversion (reversed-phase) C18 column, HPLC on C18 phase inversion column, method a), read-out: logP

SMILES | logP | other results
CC(Oc1cc(C(F)(F)F)c(C(=O)Nc2ccc(Cl)c(C(=O)NC3CC3)c2)cn1)C(F)(F)F (centres unmarked) [Ij-2] | 3.32^a) | –
Cn1nc(C(F)(F)C(F)(F)F)c(C(F)(F)F)c1C(=O)Nc1ccc(I)c(C(=O)NCc2ccccc2)c1 [Ik-184] | 4.07^a) | –
O=C(NCC(F)(F)F)c1cc(NC(=O)c2cnc(C(F)(F)C(F)(F)F)nc2C2CC2)ccc1Cl [Ib-31] | 3.65^a) | –
Cn1nc(C(F)(F)C(F)(F)F)c(C(F)(F)F)c1C(=O)Nc1cc(C(=O)NC2CC2)c(Cl)cc1F [Ik-143] | 3.39^a) | –
Cn1nc(C(F)(Cl)C(F)(F)F)c(Br)c1C(=O)O (centres unmarked) [4-Bromo-1-methyl-3-(1-chloro-1,2,2,2-tetrafluoroethyl)-1H-pyrazole-5-carboxylic acid] | – | chromatographic logP [1]: 2.43
C=CCNC(=O)c1cc(NC(=O)c2c(C(F)(F)F)c(C(F)(F)C(F)(F)F)nn2C)ncc1Cl [Ik-316] | 3.38^a) | –
Cn1nc(C(F)(F)C(F)(F)F)c(C(F)(F)F)c1C(=O)Nc1cc(F)c(Cl)c(C(=O)NCc2ccccc2)c1 [Ik-189] | 4.14^a) | –
COC(=O)c1[nH]nc(C(F)(F)C(F)(F)F)c1C(F)(F)F [Methyl 3-(pentafluoroethyl)-4-(trifluoromethyl)-1H-pyrazole-5-carboxylate] | – | chromatographic logP [1]: 3.02
O=C(NC1CC1)c1cc(NC(=O)c2ncc(OCC(F)(F)F)cc2C(F)(F)F)ccc1Cl [Ii-7, N-[4-Chloro-3-(cyclopropylcarbamoyl)phenyl]-5-(2,2,2-trifluoroethoxy)-3-(trifluoromethyl)pyridine-2-carboxamide] | – | chromatographic logP [1]: 2.9
Cn1nc(C(F)(F)C(F)(F)F)c(C(F)(F)F)c1C(=O)Nc1cc(C(=O)NCC(F)(F)F)c(F)cc1F [Ik-146] | 3.64^a) | –
O=C(NC1CC1)c1cc(NC(=O)c2cnc(OCC(F)(F)C(F)(F)F)cc2C(F)(F)F)ccc1Cl [Ij-3] | 3.44^a) | –
O=C(NCC(F)(F)F)c1cc(NC(=O)c2nccc(C(F)(F)F)c2Cl)ccc1Cl [Ie-3] | 2.88^a) | –
O=C(NCc1ccccc1)c1cc(NC(=O)c2ncc(C(F)(F)F)cc2Cl)ccc1Cl [Ii-5] | 3.17^a) | –
CC(C)N(C(=O)c1c(C(F)(F)F)c(C(F)(F)C(F)(F)F)nn1C)c1ccc(Cl)c(C(=O)NC2CC2)c1 [Ik-137] | 3.74^a) | –
C=CCNC(=O)c1cc(NC(=O)c2ccc(C(F)(F)F)nc2C)c(C)cc1Cl [Ir-8] | 2.45^a) | –
Cn1nc(C(F)(F)C(F)(F)F)c(C(F)(F)F)c1C(=O)Nc1cc(Cl)c(Br)c(C(=O)NC2CC2)c1 [Ik-213] | 3.81^a) | –
Cn1nc(C(F)(F)C(F)(F)F)c(C(F)(F)F)c1C(=O)Nc1cc(Cl)c(I)c(C(=O)NC2CC2)c1 [Ik-204] | 3.84^a) | –
COC(=O)c1cc(NC(=O)c2c(C(F)(F)F)c(C(F)(F)C(F)(F)F)nn2C)ncc1Br [methyl 5-bromo-2-({[1-methyl-3-(pentafluoroethyl)-4-(trifluoromethyl)-1H-pyrazol-5-yl]carbonyl}amino)-isonicotinate] | – | chromatographic logP [1]: 4.04
Cn1nc(C(F)(F)OC(F)(F)OC(F)(F)F)cc1C(=O)O [3-{[Difluoro(trifluoromethoxy)methoxy](difluoro)methyl}-1-methyl-1H-pyrazole-5-carboxylic acid] | – | chromatographic logP (logP): 3.38

SMILES | logP | other results
Cn1nc(OC(F)F)c(C(F)(F)F)c1C(=O)Nc1ccc(Cl)c(C(=O)NCC(F)(F)F)c1 [Ik-126, N-{4-Chloro-3-[(2,2,2-trifluoroethyl)carbamoyl]phenyl}-3-(difluoromethoxy)-1-methyl-4-(trifluoromethyl)-1H-pyrazole-5-carboxamide] | – | chromatographic logP [1]: 3.01; chromatographic logP [2]: 3.01
CCOC(=O)c1cnc(C(F)(F)C(F)(F)F)nc1C(F)F [Ethyl 4-(difluoromethyl)-2-(pentafluoroethyl)pyrimidine-5-carboxylate] | – | chromatographic logP [1]: 3.42
Cn1nc(C(F)(F)F)c(Br)c1C(=O)Nc1ccc(Cl)c(C(=O)NCC(F)(F)F)c1 [Ik-160] | 3.17^a) | –
Cn1nc(C(F)(F)C(F)(F)F)c(C(F)(F)F)c1C(=O)Nc1ccc(Cl)c(C(=O)NCc2ccccc2)c1Cl [Ik-149] | 4.33^a) | –
Cn1nc(C(F)(F)OC(F)(F)C(F)(F)OC(F)(F)F)c(I)c1C(=O)Nc1ccc(Cl)c(C(=O)NC2CC2)c1 [Ik-264] | 3.66^a) | –
Cn1nc(C(F)(F)C(F)(F)F)c(C(F)(F)F)c1C(=O)Nc1cc(C(=O)O)c(Cl)cn1 [Ik-129, 5-Chloro-2-({[1-methyl-3-(pentafluoroethyl)-4-(trifluoromethyl)-1H-pyrazol-5-yl]carbonyl}amino)isonicotinic acid] | – | chromatographic logP [1]: 2.82; chromatographic logP [2]: 2.82
Cn1nc(C(F)(F)C(F)(F)F)c(Br)c1C(=O)Nc1ccc(Cl)c(C(=O)NC2CC2)c1 [Ik-26] | 3.22^a) | –
O=C(NC1CC1)c1cc(NC(=O)c2ncc(Cl)cc2C(F)(F)F)ccc1Cl [5-chloro-N-[4-chloro-3-(cyclopropylcarbamoyl)phenyl]-3-(trifluoromethyl)pyridine-2-carboxamide] | – | chromatographic logP [1]: 2.55
COC(=O)c1cc(N(C(=O)c2c(C(F)(F)F)c(C(F)(F)C(F)(F)F)nn2C)C(=O)c2c(C(F)(F)F)c(C(F)(F)C(F)(F)F)nn2C)ccc1Cl [Methyl 5-(bis{[1-methyl-3-(pentafluoroethyl)-4-(trifluoromethyl)-1H-pyrazol-5-yl]carbonyl}amino)-2-chlorobenzoate] | – | chromatographic logP [1]: 5.85
Cn1nc(C(F)(F)C(F)(F)F)c(C(F)(F)F)c1C(=O)Nc1cc(C(=O)NCC(F)(F)F)c(Cl)cn1 [Ik-317] | 3.61^a) | –
O=C(NCc1ccccc1)c1cc(NC(=O)c2cnc(C(F)(F)C(F)(F)F)nc2C(F)(F)F)ccc1Cl [Ib-11] | 3.78^a) | –
COC(=O)c1cc(NC(=O)c2c(C(F)(F)F)c(C(F)(F)C(F)(F)F)nn2C)cnc1Cl [methyl 2-chloro-5-({[1-methyl-3-(pentafluoroethyl)-4-(trifluoromethyl)-1H-pyrazol-5-yl]carbonyl}amino)nicotinate] | – | chromatographic logP [1]: 3.7
CC(C)(F)n1nc(C(F)C(F)(F)F)c(C(F)(F)F)c1C(=O)Nc1ccc(Cl)c(C(=O)NC2CC2)c1 (centres unmarked) [Ik-100] | 3.39^a) | –
Cn1nc(-c2ccccc2Cl)c(Br)c1C(=O)Nc1ccc(Cl)c(C(=O)NCC(F)(F)F)c1 [Ik-252] | 3.41^a) | –
Cn1nc(C(F)F)c(C(F)(F)F)c1C(=O)Nc1ccc(Cl)c(C(=O)NCC=CCl)c1 [Ik-232] | 2.92^a) | –
Cn1nc(-c2ccc(C(F)(F)F)cc2)c(Br)c1C(=O)Nc1ccc(Cl)c(C(=O)NC2CC2)c1 [Ik-249] | 3.63^a) | –
O=C(NCc1ccccc1)c1cc(NC(=O)c2cnc(C(F)(F)F)nc2C(F)(F)F)ccc1Cl [Ib-6] | 3.39^a) | –
O=C(NC1CC1)c1cc(NC(=O)c2cnc(C(F)(F)C(F)(F)F)nc2C(F)(F)F)ccc1Cl [Ib-7] | 3.20^a) | –
Cn1nc(C(F)(F)C(F)(F)F)c(C(F)(F)F)c1C(=O)Nc1ccc(F)c(C(=O)NCC(F)(F)F)c1 [Ik-156] | 3.66^a) | –

SMILES | logP | other results
Cn1nc(C(F)(F)F)c(Cl)c1C(=O)Nc1ccc(Cl)c(C(=O)NC2CC2F)c1 (centres unmarked) [Ik-153] | 2.86^a) | –
Cn1nc(C(F)(F)C(F)(F)F)c(C(F)(F)F)c1C(=O)Nc1ccc(F)c(C(=O)NC2CC2F)c1 (centres unmarked) [Ik-168] | 3.35^a) | –
Cn1nc(OC(F)F)cc1C(=O)Nc1ccc(Cl)c(C(=O)NC2CC2)c1 [Ik-234] | 2.17^a) | –
Cn1nc(C(F)(F)C(F)(F)F)c(C(F)(F)F)c1C(=O)Nc1ccc(Cl)c(C(=O)NCc2ccccc2)c1 [Ik-84] | 3.90^a) | –
Cn1nc(C(F)(F)F)c(Br)c1C(=O)Nc1ccc(Cl)c(C(=O)NC2CC2F)c1 (centres unmarked) [Ik-159] | 2.82^a) | –
Cn1nc(OC(F)F)c(Br)c1C(=O)Nc1ccc(Cl)c(C(=O)NC2CC2)c1 [Ik-237] | 2.51^a) | –
Cn1nc(C(F)(F)C(F)(F)F)c(C(F)(F)F)c1C(=O)Nc1ccc(Cl)c(C(=O)NCC=C(Cl)Cl)c1 [Ik-186] | 4.09^a) | –
Cn1nc(C(F)(F)C(F)(F)F)c(C(F)(F)F)c1C(=O)Nc1cc(C(=O)NCC(F)(F)F)c(Cl)cc1F [Ik-144] | 3.73^a) | –
CNC(=O)c1cc(NC(=O)c2c(C(F)(F)F)c(C(F)(F)C(F)(F)F)nn2C)ccc1Cl [Ik-85] | 3.04^a) | –
O=C(NCC(F)(F)F)c1cc(NC(=O)c2ccc(C(F)(F)F)nc2Cl)ccc1Cl [Ir-9] | 2.82^a) | –
COC(=O)c1cc(NC(=O)c2c(C(F)(F)F)c(C(F)(F)C(F)(F)F)nn2C)ccc1Cl [Methyl 2-chloro-5-({[1-methyl-3-(pentafluoroethyl)-4-(trifluoromethyl)-1H-pyrazol-5-yl]carbonyl}amino)benzoate] | – | chromatographic logP [1]: 4.05
CC(C)(C)n1nc(C(F)(F)C(F)(F)F)c(C(F)(F)F)c1C(=O)Nc1ccc(Cl)c(C(=O)NC2CC2)c1 [Ik-167] | 4.17^a) | –
Cn1nc(C(F)(F)C(F)(F)F)c(C(F)(F)F)c1C(=O)Nc1cc(C(=O)NC2CC2)c(Cl)cn1 [Ik-318] | 3.24^a) | –
Cn1nc(C(F)(F)C(F)(F)F)c(C(F)(F)F)c1C(=O)Nc1cnc(Cl)c(C(=O)O)c1 [Ik-131, 2-Chloro-5-({[1-methyl-3-(pentafluoroethyl)-4-(trifluoromethyl)-1H-pyrazol-5-yl]carbonyl}amino)nicotinic acid] | – | chromatographic logP [1]: 2.27; chromatographic logP [2]: 2.77
Cn1nc(C(F)(F)C(F)(F)F)c(C(F)(F)F)c1C(=O)Nc1cc(F)c(Cl)c(C(=O)NC2CC2)c1 [Ik-188] | 3.59^a) | –
CC(C)NC(=O)c1cc(NC(=O)c2ccc(C(F)(F)F)nc2Cl)ccc1Cl [Ir-3] | 2.68^a) | –
O=C(NCc1ccccc1)c1cc(NC(=O)c2nccc(C(F)(F)F)c2Cl)ccc1Cl [Ie-5] | 3.16^a) | –
CCOC(=O)c1c(C)nc(C(F)(F)C(F)(F)F)nc1C [Ethyl 4,6-dimethyl-2-(pentafluoroethyl)pyrimidine-5-carboxylate] | – | chromatographic logP [1]: 3.68
